According to patent US12310975B2, “Modulators of BCL6 proteolysis and associated methods of use” (Arvinas Operations, Inc., priority 2019, dated 2025):

Experiments:
BCL6 [1] = biological target: T1, BCL6 (Homo sapiens (Human), UniProt P41182); assay: BCL6 TR-FRET assay (BCL6-Avitag-Biotin / BCoR-Cy5 peptide); assay type: binding
In short: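 After 30 min room-temperature preincubation of compound titrations with 2 nM biotinylated BCL6-Avitag, 100 nM Cy5-labelled BCoR peptide plus 2 nM Eu-streptavidin were added and TR-FRET read 2 h later. HEPES pH 7.5/125 mM NaCl buffer with Triton X, glutathione (or DTT) and BSA.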

BCL6 [2] = biological target: T1, BCL6; assay: Immunofluorescence high content imaging of BCL6 degradation in T47D cells; assay type: cell-based; settings: for Dmax: T47D; for DC50: class symbols A-D, read-out: EC50 (nM)*
In short: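 T47D, 3 d compound exposure, 11-pt 3-fold series, top 0.1 or 1 μM final. Fix 4% PFA, Triton permeabilize, anti-BCL6 primary overnight 4 °C, Alexa-488 secondary. High-content imaging 10×, 4 fields/well, top-hat smoothing.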

[3] = class symbols A-D, read-out: IC50 (nM)***

CC(=O)COc1cc2cc(Nc3nc(N4CCN(CCCN5CCN(c6ccc7c(c6)CN(C6CCC(=O)NC6=O)C7=O)CC5)CC4)ncc3Cl)ccc2n(C)c1=O (centres unmarked) [compound 137, 3-(5-(4-(3-(4-(5-chloro-4-((1-methyl-2-oxo-3-(2-oxopropoxy)-1,2-dihydroquinolin-6-yl)amino)pyrimidin-2-yl)piperazin-1-yl)propyl)piperazin-1-yl)-1-oxoisoindolin-2-yl)piperidine-2,6-dione] was tested, and the IC50 (BCL6 [1]; [3]) was < 10 nM, the Dmax (BCL6 [2]; maximum, class symbols A-C) was < 50% and the DC50 (BCL6 [2]) was 10 to 50 nM.
With CNC(=O)COc1cc2cc(Nc3nc(N4CCOCC4)ncc3Cl)ccc2n(CCCOc2ccc3c(c2)C(=O)N(C2CCC(=O)NC2=O)C3=O)c1=O (centres unmarked) [compound 474, 2-[(6-{[5-chloro-2-(morpholin-4-yl)pyrimidin-4-yl]amino}-1-(3-{[2-(2,6-dioxopiperidin-3-yl)-1,3-dioxo-2,3-dihydro-1H-isoindol-5-yl]oxy}propyl)-2-oxo-1,2-dihydroquinolin-3-yl)oxy]-N-methylacetamide] the IC50 (BCL6 [1]; read-out: IC50) was 50 to 100 nM and the Dmax (BCL6 [2]) was < 50%.
In the case of CNC(=O)COc1cc2cc(Nc3nc(N4CCC(CN5CC6(CCN(c7cccc8c7C(=O)N(C7CCC(=O)NC7=O)C8=O)C6)C5)CC4)ncc3Cl)ccc2n(C(C)C)c1=O (centres unmarked) [compound 501, 2-{[6-({5-chloro-2-[4-({6-[2-(2,6-dioxopiperidin-3-yl)-1,3-dioxo-2,3-dihydro-1H-isoindol-4-yl]-2,6-diazaspiro[3.4]octan-2-yl}methyl)piperidin-1-yl]pyrimidin-4-yl}amino)-2-oxo-1-(propan-2-yl)-1,2-dihydroquinolin-3-yl]oxy}-N-methylacetamide], the IC50 (BCL6 [1]; read-out: IC50) is reported as < 10 nM and the Dmax (BCL6 [2]) is reported as 50 to 70%.
In the case of CC(=O)COc1cc2cc(Nc3nc(N4CCC(CN(C)CC#Cc5ccc6c(c5)C(=O)N(C5CCC(=O)NC5=O)C6=O)CC4)ncc3Cl)ccc2n(C)c1=O (centres unmarked) [compound 176, 5-(3-(((1-(5-chloro-4-((1-methyl-2-oxo-3-(2-oxopropoxy)-1,2-dihydroquinolin-6-yl)amino)pyrimidin-2-yl)piperidin-4-yl)methyl)(methyl)amino)prop-1-yn-1-yl)-2-(2,6-dioxopiperidin-3-yl)isoindoline-1,3-dione], the IC50 (BCL6 [1]; [3]) is reported as ≥ 100 nM and the Dmax (BCL6 [2]; maximum, class symbols A-C) is reported as < 50%.
In the case of CNC(=O)COc1cc2cc(Nc3nc(N4CCN(CC5CCN(c6ccc(C(=O)NC7CCC(=O)NC7=O)nc6)CC5)CC4)ncc3Cl)ccc2n(C)c1=O (centres unmarked) [compound 232, 5-(4-((4-(5-chloro-4-((1-methyl-3-(2-(methylamino)-2-oxoethoxy)-2-oxo-1,2-dihydroquinolin-6-yl)amino)pyrimidin-2-yl)piperazin-1-yl)methyl)piperidin-1-yl)-N-(2,6-dioxopiperidin-3-yl)picolinamide], the EC50 (BCL6 [1]) is reported as > 100 nM, the IC50 (BCL6 [2]) is reported as 10 to 50 nM and the Dmax (BCL6 [2]) is reported as < 50%.
For CNC(=O)COc1cc2cc(Nc3nc(N4CCN(CC5CCN(c6cccc7c6C(=O)N(C6CCC(=O)NC6=O)C7=O)CC5)CC4)ncc3Cl)ccc2n(CC2COC2)c1=O (centres unmarked) [compound 485, 2-{[6-({5-chloro-2-[4-({1-[2-(2,6-dioxopiperidin-3-yl)-1,3-dioxo-2,3-dihydro-1H-isoindol-4-yl]piperidin-4-yl}methyl)piperazin-1-yl]pyrimidin-4-yl}amino)-1-[(oxetan-3-yl)methyl]-2-oxo-1,2-dihydroquinolin-3-yl]oxy}-N-methylacetamide], the IC50 (BCL6 [1]; read-out: IC50) was < 10 nM and the Dmax (BCL6 [2]) was 50 to 70%.
In the case of CC(=O)COc1cc2cc(Nc3nc(N4CC(OCCN5CCN(c6ccc7c(c6)C(=O)N(C6CCC(=O)NC6=O)C7=O)CC5)C4)ncc3Cl)ccc2n(C)c1=O (centres unmarked) [compound 172, 5-(4-(2-((1-(5-chloro-4-((1-methyl-2-oxo-3-(2-oxopropoxy)-1,2-dihydroquinolin-6-yl)amino)pyrimidin-2-yl)azetidin-3-yl)oxy)ethyl)piperazin-1-yl)-2-(2,6-dioxopiperidin-3-yl)isoindoline-1,3-dione], the IC50 (BCL6 [1]; [3]) is reported as ≥ 100 nM and the DC50 (BCL6 [2]) is reported as > 100 nM.
Molecule CNC(=O)COc1cc2cc(Nc3cc(N4CCC(CN5CCN(c6ccc7c(c6)C(=O)N(C6CCC(=O)NC6=O)C7=O)CC5)CC4)ncc3Cl)ccc2n(C)c1=O (centres unmarked) [compound 197, 2-((6-((5-chloro-2-(4-((4-(2-(2,6-dioxopiperidin-3-yl)-1,3-dioxoisoindolin-5-yl)piperazin-1-yl)methyl)piperidin-1-yl)pyridin-4-yl)amino)-1-methyl-2-oxo-1,2-dihydroquinolin-3-yl)oxy)-N-methylacetamide] has an EC50 (BCL6 [1]) of 50 to 100 nM, an IC50 (BCL6 [2]) of 50 to 100 nM and a Dmax (BCL6 [2]) of 50 to 70%.
CNC(=O)COc1cc2cc(Nc3nc(N4CC5(CCC(OC6CCN(c7ccc8c(c7)C(=O)N(C7CCC(=O)NC7=O)C8=O)CC6)CC5)C4)ncc3Cl)ccc2n(C(C)C)c1=O (centres unmarked) [compound 444, 2-{[6-({5-chloro-2-[7-({1-[2-(2,6-dioxopiperidin-3-yl)-1,3-dioxo-2,3-dihydro-1H-isoindol-5-yl]piperidin-4-yl}oxy)-2-azaspiro[3.5]nonan-2-yl]pyrimidin-4-yl}amino)-2-oxo-1-(propan-2-yl)-1,2-dihydroquinolin-3-yl]oxy}-N-methylacetamide] was tested, and the IC50 (BCL6 [1]; read-out: IC50) was < 10 nM and the Dmax (BCL6 [2]) was 50 to 70%.
CNC(=O)COc1cc2cc(Nc3nc(N4CCC(CN5CCC(c6cc(OC)cc(C(=O)NC7CCC(=O)NC7=O)c6F)CC5)CC4)ncc3Cl)ccc2n(C(C)C)c1=O (centres unmarked) [compound 462, 3-[1-({1-[5-chloro-4-({3-[(methylcarbamoyl)methoxy]-2-oxo-1-(propan-2-yl)-1,2-dihydroquinolin-6-yl}amino)pyrimidin-2-yl]piperidin-4-yl}methyl)piperidin-4-yl]-N-(2,6-dioxopiperidin-3-yl)-2-fluoro-5-methoxybenzamide] was tested, and the IC50 (BCL6 [1]; read-out: IC50) was ≥ 100 nM and the Dmax (BCL6 [2]) was ≥ 70%.
CNC(=O)COc1cc2cc(Nc3nc(N4CCN(CC5CC6(CCN(c7ccc8c(c7)C(=O)N(C7CCC(=O)NC7=O)C8=O)CC6)C5)CC4)ncc3Cl)ccc2n(C(C)C)c1=O (centres unmarked) [compound 516, 2-{[6-({5-chloro-2-[4-({7-[2-(2,6-dioxopiperidin-3-yl)-1,3-dioxo-2,3-dihydro-1H-isoindol-5-yl]-7-azaspiro[3.5]nonan-2-yl}methyl)piperazin-1-yl]pyrimidin-4-yl}amino)-2-oxo-1-(propan-2-yl)-1,2-dihydroquinolin-3-yl]oxy}-N-methylacetamide] was tested, and the IC50 (BCL6 [1]; read-out: IC50) was < 10 nM and the Dmax (BCL6 [2]) was 50 to 70%.
CNC(=O)COc1cc2cc(Nc3nc(N4CCN(CC5CCN(c6cc(OC)cc(C(=O)NC7CCC(=O)NC7=O)c6F)CC5)CC4)ncc3Cl)ccc2n(C)c1=O (centres unmarked) [compound 465, 3-[4-({4-[5-chloro-4-({1-methyl-3-[(methylcarbamoyl)methoxy]-2-oxo-1,2-dihydroquinolin-6-yl}amino)pyrimidin-2-yl]piperazin-1-yl}methyl)piperidin-1-yl]-N-(2,6-dioxopiperidin-3-yl)-2-fluoro-5-methoxybenzamide] was tested, and the IC50 (BCL6 [1]; read-out: IC50) was < 10 nM and the Dmax (BCL6 [2]) was 50 to 70%.
For CNC(=O)COc1cc2cc(Nc3nc(N4CCN(CC5CCC6(CC5)CN(c5ccc7c(c5)C(=O)N(C5CCC(=O)NC5=O)C7=O)C6)CC4)ncc3Cl)ccc2n(C(C)C)c1=O (centres unmarked) [compound 451, 2-{[6-({5-chloro-2-[4-({2-[2-(2,6-dioxopiperidin-3-yl)-1,3-dioxo-2,3-dihydro-1H-isoindol-5-yl]-2-azaspiro[3.5]nonan-7-yl}methyl)piperazin-1-yl]pyrimidin-4-yl}amino)-2-oxo-1-(propan-2-yl)-1,2-dihydroquinolin-3-yl]oxy}-N-methylacetamide], the IC50 (BCL6 [1]; read-out: IC50) was < 10 nM and the Dmax (BCL6 [2]) was 50 to 70%.
CNC(=O)COc1cc2cc(Nc3nc(N4CCN(CC5CCC6(CC5)CN(c5c(F)ccc7c5C(=O)N(C5CCC(=O)NC5=O)C7=O)C6)CC4)ncc3Cl)ccc2n(C(C)C)c1=O (centres unmarked) [compound 539, 2-{[6-({5-chloro-2-[4-({2-[2-(2,6-dioxopiperidin-3-yl)-5-fluoro-1,3-dioxo-2,3-dihydro-1H-isoindol-4-yl]-2-azaspiro[3.5]nonan-7-yl}methyl)piperazin-1-yl]pyrimidin-4-yl}amino)-2-oxo-1-(propan-2-yl)-1,2-dihydroquinolin-3-yl]oxy}-N-methylacetamide] was tested, and the IC50 (BCL6 [1]; read-out: IC50) was < 10 nM and the Dmax (BCL6 [2]) was 50 to 70%.
In the case of CNC(=O)COc1cc2cc(Nc3nc(N4CCC(CN5CCC6(C5)CN(c5ccc7c(c5)C(=O)N(C5CCC(=O)NC5=O)C7=O)C6)CC4)ncc3Cl)ccc2n(C(C)C)c1=O (centres unmarked) [compound 510, 2-{[6-({5-chloro-2-[4-({2-[2-(2,6-dioxopiperidin-3-yl)-1,3-dioxo-2,3-dihydro-1H-isoindol-5-yl]-2,6-diazaspiro[3.4]octan-6-yl}methyl)piperidin-1-yl]pyrimidin-4-yl}amino)-2-oxo-1-(propan-2-yl)-1,2-dihydroquinolin-3-yl]oxy}-N-methylacetamide], the IC50 (BCL6 [1]; read-out: IC50) is reported as < 10 nM and the Dmax (BCL6 [2]) is reported as 50 to 70%.
In the case of CC(=O)[C@@H](C)Oc1cc2cc(Nc3nc(N4CCC(CN5CCN(c6ccc7c(c6)C(=O)N([C@@H]6CCC(=O)NC6=O)C7=O)CC5)CC4)ncc3Cl)ccc2n(C)c1=O [compound 218, 5-(4-((1-(5-chloro-4-((1-methyl-2-oxo-3-(((R)-3-oxobutan-2-yl)oxy)-1,2-dihydroquinolin-6-yl)amino)pyrimidin-2-yl)piperidin-4-yl)methyl)piperazin-1-yl)-2-((R)-2,6-dioxopiperidin-3-yl)isoindoline-1,3-dione], the EC50 (BCL6 [1]) is reported as > 100 nM, the IC50 (BCL6 [2]) is reported as ≥ 100 nM and the Dmax (BCL6 [2]) is reported as < 50%.
In the case of CNC(=O)C1Oc2cc(Nc3nc(N4CCN(C(C)(C)C5CCN(c6ccc7c(c6)C(=O)N(C6CCC(=O)NC6=O)C7=O)CC5)CC4)ncc3Cl)ccc2N(C)C1=O (centres unmarked) [compound 274, 7-({5-chloro-2-[4-(2-{1-[2-(2,6-dioxopiperidin-3-yl)-1,3-dioxo-2,3-dihydro-1H-isoindol-5-yl]piperidin-4-yl}propan-2-yl)piperazin-1-yl]pyrimidin-4-yl}amino)-N,4-dimethyl-3-oxo-3,4-dihydro-2H-1,4-benzoxazine-2-carboxamide], the EC50 (BCL6 [1]) is reported as > 100 nM and the IC50 (BCL6 [2]) is reported as ≥ 100 nM.
